Measurements published in patent publication US8765173B2, “Drug delivery system for administration of a water soluble, cationic and amphiphilic pharmaceutically active substance” (Ardenia Investments, Ltd., priority 2007, dated 2014).
Converted amounts (≈) assume the structure as drawn. Where a name gives a salt, the structure may show the parent alone.

What was measured:
[1] = Solubility in water by UV method; conditions: thermodynamic from solid
physchem = conditions: water, thermodynamic from solid
[2] = stated in Example 1 without method; cited from earlier work

Structure (SMILES) | solubility (physchem) [µg/mL] | also measured
COc1cccc2c1C(=O)c1c(O)c3c(c(O)c1C2=O)C[C@@](O)(C(=O)CO)C[C@@H]3O[C@H]1C[C@H](N)[C@H](O)[C@H](C)O1 [doxorubicin in amine form, doxorubicin] |  | solubility [1]: 15 µg/mL (≈ 27.6 µM)
O=C1c2c(O)ccc(O)c2C(=O)c2c(NCCNCCO)ccc(NCCNCCO)c21 [mitoxantrone in amine form, mitoxantrone] | 30 (≈ 67.5 µM) | 
COc1cccc2c1C(=O)c1c(O)c3c(c(O)c1C2=O)C[C@@](O)(C(=O)CO)C[C@@H]3O[C@H]1C[C@H](N)[C@H](O)[C@H](C)O1 [doxorubicin hydrochloride] |  | soluble in water in an amount of [2]: more than 25 mg/ml
CC[C@@]1(O)C(=O)OCc2c1cc1n(c2=O)Cc2cc3c(CN(C)C)c(O)ccc3nc2-1 [topotecan in amine form, topotecan] | 90 (≈ 214 µM) | 
